What was measured:
[1] = test system: ERK; test: Western blot of ERK activity (pERK) in endothelial cells in 2D culture; format: cell-based, human; conditions: ECs on TCP (2D culture)
Source text: (§1) (D) Top 10 (TPM>100, top 10 fold change) vasculature (TPM>100, Top 10 fold change) (AmiGO, GO:0001944) and cell cycle genes (AmiGO, GO:0007049) from RNA-seq. Full gene list of vasculature and cell cycle was generated by Amigo. […] Data was normalized to DMSO control (not shown). […] Data was normalized to NT control. ERK2i, siRNA of ERK2. NT, non-targeting.
(§2) We investigated a potential role for ERK signaling on cell cycle gene expression for ECs cultured on TCP surfaces since ERK regulates EC functions that include proliferation, blood vessel morphogenesis, and mechanotransduction^34,35,43-46. […] We further investigated the role for ERK activity in regulating the shift to a proliferative phenotype by comparing the top 10 enriched cycle genes from 2D culture and vascular development genes from 3D culture (Day 3) for ECs on TCP after pERK inhibition (FIGS. 3b-d).

[2] = test system: endothelial cells (ECs); format: cell-based; conditions: ECs on TCP (2D culture)
Source text: as §1

[3] = test system: vasculature and cell cycle genes; test: RT-qPCR of vasculature and cell cycle gene expression in ECs on TCP; format: cell-based, human; conditions: normalized to control
Source text: as §1, §2

N#CC(=C(/N)Sc1ccccc1N)/C(C#N)=C(\N)Sc1ccccc1N [U0126]
ERK activity (Western blot) [1]: decreased ERK activity
EC proliferation [2]: decreased EC proliferation
cell cycle gene expression (top 10 genes, RT-qPCR) [3]: 10 of 10 genes downregulated
vasculature (vascular development) gene expression (top 10 genes, RT-qPCR) [3]: 8 of 10 genes upregulated

Source: patent publication US11220672B2, “Human pluripotent stem cell-based system for generating endothelial cells” (Wisconsin Alumni Research Foundation, priority 2014, dated 2022)
